# In US10123983B2, “DNA methyltransferases for the treatment and prevention of arthritis” (Washington University, priority 2015, dated 2018):
# Columns and labels:
# [1] = test system: primary articular chondrocytes; assay: Cytokine-induced chondrocyte hypertrophy measured by ALP activity; format: cell-based, mouse; conditions: cytokine treatment
# Experimental: FIG. 24 depicts Dnmt3b gain-of-function attenuates IL-1β-induced chondrocyte hypertrophy. Primary ACs from 2 mo Dnmt3b GOF mice were treated with vehicle or doxycycline (10 μg/ml) for 24 hr. Medium without or with IL-1β (1 ng/ml) was added for 48 hr and ALP staining performed using NBT/BCIP substrate solution.
# Hypertrophic characteristics, as measured by ALP activity, were induced in primary articular chondrocytes by treatment with either IL-1β or TNF-α. Dnmt3b GOF was induced by transfecting a plasmid expressing full-length Flag-tagged Dnmt3b cDNA. Western blot confirmed protein over-expression (data not shown). […] Similar results were shown in the TNF-α experiment (results not shown)
# WT murine PACs [2] = assay: Chondrocyte gene expression in response to succinate treatment (qPCR); format: cell-based, mouse
# Experimental: (§1) FIG. 13A, FIG. 13B, FIG. 13C, FIG. 13D, FIG. 13E, FIG. 13F, FIG. 13G, FIG. 13H, FIG. 13I, FIG. 13J, FIG. 13K, FIG. 13L, FIG. 13M and FIG. 13N depict graphs showing mitochondria function and cellular homeostasis in Dnmt3b LOF chondrocytes. Primary articular chondrocytes were isolated from 2 mo Dnmt3b^f/f mice and infected with Ad5-Cre (Dnmt3b LOF) or Ad5-GFP (Ctrl) for 48 h. (FIG. 13A, FIG. 13B, FIG. 13C) Mitochondrial respiration was measured by the Seahorse XF Extracellular Flux Analyzer. Basal respiration and maximal respiration, as measured by the oxygen consumption rate (OCR) are shown. (FIG. 13D, FIG. 13E, FIG. 13F) TCA metabolite (succinate, fumarate) and NADH analysis by HPLC-MS. (FIG. 13G, FIG. 13H, FIG. 13I) Mitochondrial metabolism analysis was measured in 2 mo WT cells treated with either 1 mM diethyl succinate or vehicle for 48 h by the Seahorse XF Extracellular Flux Analyzer. (FIG. 13J) Chondrocyte gene expression in response to succinate treatment was analyzed by qPCR. (FIG. 13K, FIG. 13L, FIG. 13M) Mitochondrial respiration analysis in BMP-2-treated 2 mo WT chondrocytes in the presence or absence antimycin A+rotenone for 48 h. (FIG. 13N) Analysis of chondrocyte gene expression in response to BMP-2 treatment+/−antimycin A+rotentone (0.1 μM).
# Real-time PCR and western blot. RNA was isolated from ATDC-5 chondrocytes or primary articular chondrocytes using RNeasy Mini kit (Qiagen). cDNA synthesis and real-time RT-PCR was performed according to manufacturer's instructions. Western blot analyses were conducted on the protein of lysates from either ATDC-5 cells or primary (murine or human) articular chondrocytes. The following primary antibodies were used: pSmad1/5 (Cell Signaling technology Inc., 1:500), pSmad2 (Cell Signaling technology Inc., 1:1000), Smad1/5/8 (Cell Signaling technology Inc., 1:1000), Smad2 (Cell Signaling technology Inc., 1:1000), DNMT3A (LSBio, 1:1000), DNMT3B (LSBio, 1:1000), FLAG (Life technology, 1:1000) and β-actin (Sigma, 1:2000).
# [3] = test system: Primary articular chondrocytes from 2 mo WT mice; assay: Succinate concentration assay; format: cell-based, mouse; conditions: 1 mM diethyl succinate, 48 h
# Experimental: FIG. 15 depicts a graph showing cellular succinate levels in murine chondrocytes. Primary articular chondrocytes from 2 mo WT mice were treated with 1 mM diethyl succinate or vehicle for 48 h.
# Succinate concentration assay. Primary articular chondrocytes isolated from 2 mo WT mice were treated with vehicle or diethylsuccinate (1 mM) for 48 h. Intracellular succinate concentration was measured using the succinate colorimetric assay kit following the manufacturer's instruction (Sigma, #MAK184-1KT).
# WT murine PACs [4] = assay: Mitochondria stress test (Seahorse XF Extracellular Flux Analyzer) after succinate treatment; format: cell-based, mouse; conditions: 1 mM diethyl succinate, 48 h
# Experimental: as §1, with “(FIG. 13N) Analysis of chondrocyte gene expression in response to BMP-2 treatment+/−antimycin A+rotentone (0.1 μM).” left out
# Metabolite analysis and mitochondria stress test. […] Metabolites were analyzed by LC-MS/MS as previously described^60. […] At the end of the assays, protein concentrations were measured for normalization.
# [5] = rodents, within the proposed dosage range; literature study (99); cited from earlier work
# Dnmt3b LOF chondrocytes = assay: Vigabatrin treatment of Dnmt3b LOF primary articular chondrocytes, hypertrophic marker expression; format: cell-based, mouse
# Experimental: FIG. 23A, FIG. 23B and FIG. 23C depict ablation of Dnmt3b in articular chondrocytes (ACs). Primary Acs from Dnmt3b^f/f mice were infected with Ad5-Cre or Ad-GFP for 48 hr and cultured for a further 48 hr with or without vigabatrin (500μM).
# To determine if this effect is dependent upon increased Abat expression, experiments were performed using vigabatrin to inhibit Abat activity in articular chondrocytes. […] Work will comprehensively investigate the role of Abat in controlling both metabolism and hypertrophic/catabolic responses in articular chondrocytes, and define its role in the development of OA.
# Dnmt3b promoter = Dnmt3b promoter luciferase assay; format: cell-based, mouse; conditions: ATDC-5 cells, IL-1β 1 ng/ml, 24 h, versus untreated control
# Excerpt: (§2) FIG. 4A, FIG. 4B, FIG. 4C, FIG. 4D, FIG. 4E and FIG. 4F depict sequences, graphs and a nucleic acid gel and immunoblot showing IL-1β regulation of Dnmt3b is mediated in part by NF-κB. (FIG. 4A) Sequence alignment and conservation of an NF-κB binding site (red) in the promoter region of the Dnmt3b gene of different species. Mouse—SEQ ID NO:1; Human—SEQ ID NO:2; Dog; SEQ ID NO:3; Horse—SEQ ID NO:4. […] Reduced luciferase activity is attenuated when ATDC-5 cells were transfected with a reporter plasmid containing a mutated NF-κB binding site ([…]; SEQ ID NO:5). […] (FIG. 4E, FIG. 4F) Dnmt3b mRNA and protein levels were reduced in murine WT primary articular chondrocytes (extracted from 3 mo murine knee joints) following IL-1β induction (48 h).
# Dnmt3b promoter luciferase assay. ATDC-5 cells were transfected with a pGL4 luciferase plasmid containing cDNA encoding 1 kb of the murine Dnmt3b promoter using X-tremeGENE transfection reagents (Roche, #06366236001). A Dnmt3b promoter construct containing mutations in the predicted NFκB binding site was also transfected into an additional set of ATDC-5 cells. All transfected cells were then treated with IL-1β (1 ng/ml) for 24 h before performing the luciferase assay.
# [6] = test system: human primary articular chondrocytes; assay: IL-1β treatment of human primary articular chondrocytes, gene and protein expression; format: cell-based
# Excerpt: FIG. 1A, FIG. 1B, FIG. 1C, FIG. 1D, FIG. 1E, FIG. 1F, FIG. 1G, FIG. 1H, FIG. 1I, FIG. 1J, FIG. 1K, FIG. 1L and FIG. 1M depict images, graphs and an immunoblot showing Dnmt3b expression in murine and human knee joint cartilage. (FIG. 1A, FIG. 1B) Dnmt3a is not expressed in chondrocytes from 3 mo WT articular cartilage [(FIG. 1B) represents a magnified image of the boxed region in (FIG. 1A)]. (FIG. 1C) Dnmt3a expression in pancreas tissue (positive control). (FIG. 1D, FIG. 1E, FIG. 1F) Robust expression of Dnmt3b in chondrocytes of 3 mo WT articular cartilage and lower expression in underlying growth plate cartilage; [(FIG. 1E) represents a magnified image of the dashed boxed area of articular cartilage in (FIG. 1D); (FIG. 1F) represents a magnified image of the solid boxed area of growth plate cartilage in (FIG. 1D)]. Dnmt3b expression is also shown in: (FIG. 1G) 3 mo versus 27 mo WT murine knee articular cartilage; (FIG. 1H) 14 wk old murine articular cartilage following MLI surgery compared to cartilage from sham control knees; (FIG. 1I) 14 wk murine articular cartilage in mice fed a high fat diet (HFD) compared to controls (Ctrl) fed a normal diet. (FIG. 1J) Two representative images showing DNMT3B expression in human healthy articular cartilage or osteoarthritic cartilage tissue sections. (FIG. 1K) Reduced DNMT3B expression in human primary OA chondrocytes compared to healthy chondrocytes). […] All scale bars, 100 μm.
# FIG. 3A and FIG. 3B depict graphs showing altered anabolic and catabolic gene expression in IL-1β-treated human primary chondrocytes. Reduced COL2A1 (FIG. 3A) and increased MMP13 (FIG. 3B) expression following IL-1β treatment (48 h) of human primary articular chondrocytes isolated from total knee replacement surgeries.
# Full thickness sections of human articular cartilage were removed from the femoral condyles and tibial plateaus of specimens obtained following total knee replacement surgery, diced into 2 mm cubes and digested in sterile spinner flasks for 90 min at 37° C. in pronase digestion buffer [DMEM/F12 (Gibco); 5% FBS (Atlanta Biologicals), 2% penicillin/streptomycin (Gibco) and 0.4% pronase (Roche)]. Following washes in HBSS (Gibco), tissue was further digested in collagenase digestion buffer at 37° C. [DMEM/F12; 5% FBS; 2% penicillin/streptomycin; 0.035% collagenase P (Roche)] for 14-16 hr. Cells were collected, filtered through 70 μm cell strainers (VWR) and plated at a density of 100,000 cells/cm^2. After 24 hr, chondrocytes were treated with IL-1β (10 ng/ml; Gibco) for 48 hr. Total RNA was collected using the Total RNA prep kit (Norgen Biotek) and cDNA was synthesized using Superscript RT II (Life Technologies).
# Real-time PCR and western blot. […]
# [7] = test system: murine WT primary articular chondrocytes; assay: IL-1β induction of murine WT primary articular chondrocytes, Dnmt3b expression; format: cell-based, mouse; conditions: IL-1β induction 48 h
# Excerpt: as §2
# Real-time PCR and western blot. RNA was isolated from ATDC-5 chondrocytes or primary articular chondrocytes using RNeasy Mini kit (Qiagen). cDNA synthesis and real-time RT-PCR was performed according to manufacturer's instructions. Western blot analyses were conducted on the protein of lysates from either ATDC-5 cells or primary (murine or human) articular chondrocytes. […]
# [8] = Abat inhibition with vigabatrin
molecule,measurement,setting,value
TNF-α,"hypertrophic characteristics, as measured by ALP activity",[1],induced
CCOC(=O)CCC(=O)OCC [diethyl succinate],Col2a1 expression,WT murine PACs [2],decreased
same,Mmp13 expression,WT murine PACs [2],increase
same,Runx2 expression,WT murine PACs [2],increase
same,cellular succinate levels,[3],Increased levels of cellular succinate
same,basal respiration (OCR),WT murine PACs [4],increased
same,maximal respiration (OCR),WT murine PACs [4],increased
C=CC(N)CCC(=O)O (stereo not drawn) [vigabatrin],side effects,[5],did not report any side effects
same,Col10a1 expression in Dnmt3b LOF chondrocytes,Dnmt3b LOF chondrocytes; [8],attenuates the increased expression
same,Mmp13 expression in Dnmt3b LOF chondrocytes,Dnmt3b LOF chondrocytes; [8],attenuates the increased expression
same,Runx2 expression in Dnmt3b LOF chondrocytes,Dnmt3b LOF chondrocytes; [8],attenuates the increased expression
same,catabolic responses in chondrocytes,Dnmt3b LOF chondrocytes; in vitro administration,can block catabolic responses
same,hypertrophic gene expression induced by Dnmt3b LOF,"Dnmt3b LOF chondrocytes; vigabatrin 500μM, 48 hr, primary ACs from Dnmt3b f/f mice infected with Ad5-Cre",partially attenuated
IL-1β: pro-inflammatory cytokine,"hypertrophic characteristics, as measured by ALP activity",[1],induced
same,luciferase expression of Dnmt3b promoter reporter,Dnmt3b promoter,Reduced luciferase expression
same,DNMT3B mRNA expression,"[6]; IL-1β 10 ng/ml, 48 hr",decreased
same,DNMT3B protein expression,"[6]; IL-1β 10 ng/ml, 48 hr",decreased
same,COL2A1 expression,[6]; IL-1β treatment 48 h,Reduced
same,MMP13 expression,[6]; IL-1β treatment 48 h,increased
same,Dnmt3b mRNA level,[7],reduced
same,Dnmt3b protein level,[7],reduced
